Assay results published in US7928090B2, “External preparation composition” (Lion Corporation, priority 2002, dated 2011).

Legend:
[1] = test system: back skin of hairless mice irradiated with UVB; assay: Coarse texture-improving test; assay type: in vivo, hairless mice (hos: HR-1); details: 0.05% in ethanol/propylene glycol (7:3), 100 μL, 4 weeks; texture intersection points relative to non-irradiated group (control 24)
Description: (§1) Four (4) hairless mice per 1 group (hos: HR-1, 10 weeks of age, female) were irradiated on the back skin once a day with UVB at 40 mJ/cm^2 three times a week over a period of 6 weeks. After finishing irradiation, each 100 μL of an ethanol/propylene glycol (7:3) solution containing 0.05% of various acyl glucosamine derivatives shown in the following Table 4 or an ethanol/propylene glycol (7:3) solution as a control was applied on the mouse back in a frequency of once a day and five times a week over 4 weeks.
After finishing application, a replica agent (brand name SILFLO®; manufactured by UK FLEXICO DEVELOPMENTS LTD.) was used to obtain a replica of a mouse back skin. A replica of a UV-non-irradiated group (4 heads) was obtained as a control in the same manner.
The enlarged photographs of the respective replicas were taken through a macro lens (magnification: four times), and the photographs were used to evaluate “coarsening of the texture”.
The coarseness of the texture was defined by a “number of texture intersection point”, wherein a point in which three or more sulci cutis are joined is counted as one intersection point, and the number of the texture intersection points present in a square of 1 cm×1 cm was counted on the replica photograph.
An average point for the respective groups was calculated, and the texture-improving rate was calculated according to the following equation (III). Texture-improving rate (%)=[(number of texture intersection of applied group)/(number of texture intersection point of non-irradiated group)]×100 (III)

[2] = test system: back skin of hairless mice irradiated with UVB; assay: Wrinkle-improving test; assay type: in vivo, hairless mice (hos: HR-1); details: 0.05% in ethanol/propylene glycol (7:3), 100 μL once a day, five times a week, 8 weeks; versus control group
Description: as §1, with “at 50” for “at 40”, “mJ/cm^2 five” for “mJ/cm^2 three”, “of 10” for “of 6”, “Table 3” for “Table 4 or an ethanol/propylene glycol (7:3) solution as a control”, “over 8” for “over 4”
After finishing application for 8 weeks, the degree of wrinkles was visually evaluated according to the following evaluation criteria and calculation equation. A control group applied with the ethanol/propylene glycol (7:3) solution was evaluated as a control in the same manner.
Evaluation Criteria of the Degree of Wrinkles:
Evaluation point 0: a lot of fine striations is present on the back and the flank; fine striations run in a direction from the head to the tail; and the striations appear or disappear with the motion of the mouse.
Evaluation point 1: all fine striations along the spine are not observed; a few shallow and coarse wrinkles run perpendicularly to the head-to-tail direction; and the striations appear or disappear with the motion of the mouse.
The respective bodies were evaluated by an evaluation point of a 0.5 unit to calculate an average point for the respective groups, and the wrinkle-improving rate was calculated for the respective groups according to the following equation (II). Wrinkle-improving rate (%)=[(average value of the control group−average value of a glucosamine derivative-applied group)/(average value of the control group)]×100 (II)

guinea pig skin = assay: Continuous irritative test of guinea pig skin (Draize method); assay type: in vivo, guinea pig (Hartley series); details: Table 1; 0.5% in ethanol/propylene glycol (7:3), 50 μL once a day, 3 days straight; total of erythema and edema, full marks 8 points
Description: Each left and right two spots (4 spots/head) of applying parts having a frame of 2 cm×2 cm were provided on the back of a shaved guinea pig (Hartley series, 7 weeks of age, female, N=10), and each 50 μL of an ethanol/propylene glycol (7:3) solution containing 0.5% of the respective acyl glucosamine derivatives shown in the following Table 1 was applied once a day on the respective frames.
A skin irritative score after application for 3 days straight was evaluated according to the following evaluation criteria (Draize method). The above irritative score was shown by the total points (full marks: 8 points) of erythema and edema.
Evaluation Criteria of Skin Irritative Score:
3: middle to strong erythema
4: very strong erythema to crust
1: very slight edema formation
2: slight edema formation
3: middle edema formation
4: strong edema formation

acne patients = assay: Acne-improvement evaluation; assay type: in vivo, human; details: essence with 0.05%, one month; for Evaluation X (worsened), number of subjects / Evaluation Δ (no change), number of subjects / Evaluation ⊚ (notably improved), number of subjects / Evaluation ◯ (improved), number of subjects: applied on face several times a day; for Acne treating effect: percentage of subjects rated improved or better
Description: Prepared was an essence for acne shown in the following composition example in which 0.05% of various acyl glucosamine derivatives shown in the following Table 6 was blended. An essence which was not blended with an acyl glucosamine derivative was prepared as a control.
Sixty acne patients were picked up as subjects to apply everyday the respective essences on the faces thereof several times a day, and the therapeutic effect against the acnes was visually evaluated a month later according to four degrees of the following evaluation criteria.
In the four degree evaluation described above, improvement (∘) or better effect (⊚) was regarded as “effective for treating acnes”, and the subjects showing a treating effect were shown by a numerical value (percentage).

[3] = test system: skin roughness in the inside of a forearm of a human being; assay: Skin roughness-improving test (SDS-induced skin roughness); assay type: in vivo; details: hydrophilic ointment with 0.05%, twice a day, 3 days; conductance relative to ointment with no tested substance = 100
Description: A 10% SDS solution was used to artificially form a skin roughness in the inside of a forearm of a human being, and a hydrophilic ointment blended with 0.05% of various acyl glucosamine derivatives shown in the following Table 5 was applied thereon twice a day.
The skin roughness-improving degree observed 3 days later after application was evaluated using a change in a stratum corneum water content as an index. The stratum corneum water content is measured in terms of a conductance (μS). The improving degree was shown by a relative value, wherein the conductance observed when applying the hydrophilic ointment blended with no acyl glucosamine derivative was set at 100, and the skin roughness-improving rate was calculated according to the following equation (IV). Skin roughness-improving rate (%)=[(conductance observed when applying the ointment blended with the tested substance)/(conductance observed when applying the ointment blended with no tested substance)]×100 (IV)

[4] = test system: pigmentation on the backs of color guinea pigs; assay: Whitening evaluation (UV-induced pigmentation); assay type: in vivo; set-up: key: +++: notably improved; ++: improved; +: a little improved; ±: no change; details: 0.05% in ethanol/propylene glycol (7:3), 30 μL once a day, five times a week, 4 weeks; visual change in pigmentation
Description: Back body hair of color guinea pigs were shaved by means of a hair clipper and a shaver, and they were irradiated with UV rays once a day, 4 times a week and 8 times in total, whereby 4 parts of pigmentation having an area of about 2.25 cm^2 were formed on the backs of the respective guinea pigs.
Each 30 μL of an ethanol/propylene glycol (7:3) solution containing 0.05% of various acyl glucosamine derivatives shown in the following Table 7 was applied thereon in a frequency of once a day and five times a week over 4 weeks, and a change in the pigmentation was visually evaluated according to four degrees of the following evaluation criteria. The solution containing no acyl glucosamine derivative was used for a comparative example.

| SMILES | Texture-improving rate [1] [%] | Wrinkle-improving rate [2] [%] | Draize score (guinea pig skin) [points] | Evaluation X (worsened), number of subjects (acne patients) | Evaluation Δ (no change), number of subjects (acne patients) | Evaluation ⊚ (notably improved), number of subjects (acne patients) | Evaluation ◯ (improved), number of subjects (acne patients) | Acne treating effect (acne patients) [%] | Skin roughness-improving rate [3] [%] | Whitening-improving effect [4] |
| --- | --- | --- | --- | --- | --- | --- | --- | --- | --- | --- |
| CCCCCCCCCCCCCCCCOCCOCCOC(=O)N[C@H]1C(O)O[C@H](CO)[C@@H](O)[C@@H]1O (stereo partly drawn) [N-POE (2) hexadecyletheroxycarbonyl-D-glucosamine] | 89 | 72 | 0.1 | 0 | 2 | 0 | 3 | 60 | 139 | ++ |
| CCCCCCCCCCCCCCCCCCCCCCOCCOCCOCCOCCOCCOCCOCCOCCOCCOCCOC(=O)N[C@H]1C(O)O[C@H](CO)[C@@H](O)[C@@H]1O (stereo partly drawn) [N-POE (10) docosyletheroxycarbonyl-D-glucosamine] | 88 | 82 | 0.1 | 0 | 3 | 0 | 2 | 40 | 138 | ++ |
